≈ marks a conversion by molar mass, not a printed value. Where two headings read alike, the source gives them in different places.
Experiments:
[1] = Dye content of TMB solution, A (285 nm): amount of unrestricted benzidine rings in solution; type: physicochemical
Protocol: A TMB solution was prepared having the following concentration of reagents: 3 mM TMB (Sigma, Cat #T-2885), 0.5% dimethylsulfoxide (DMSO; […] Various chemicals, used at 0.5M in the TMB solution, were compared against the betaine reagent in non-encapsulation solubilization methods. Glycine (Sigma, Cat #G8898), sarcosine (Sigma, Cat #131776), choline chloride (Sigma, Cat #C1909), L-carnitine (Sigma, Cat #C0158), 3-(1-pyridinio)-1-propanesulfonate (Sigma, Cat #82804), or the betaine N,N,N-trimethylglycine (Sigma, Cat #B2629) were all added to separate scintillation vials of TMB solution. Each TMB substrate and TMBW (available from SurModics, Inc) in an amount of 20 μL were added to individual aliquots of 980 μL of distilled water. […] Each TMB solution in an amount of 20 μL was added to individual aliquots of 980 μL of distilled water. […] To each TMB solution was added 1 mM hydroxy propyl beta-cyclodextrin (Wacker, 60082620), 3 mm hydroxy propyl beta-cyclodextrin (Wacker, 60082620), or 0.5M of the betaine N,N,N-trimethylglycine (Sigma, Cat #B2629). Each TMB substrate and TMBW (available from SurModics, Inc) in an amount of 20 μL of were added to individual aliquots of 980 μL of distilled water.

[2] = target: HRP; experiment: Kinetic rate of HRP oxidation of TMB substrate on anti-peroxidase coated microwell plate, A (650 nm); type: biochemical, horseradish; details: 0-1 OD at 650 nm, 0-15 minutes
Protocol: A TMB solution was prepared having the following concentration of reagents: 3 mM TMB (Sigma, Cat #T-2885), 0.5% dimethylsulfoxide (DMSO; […] Various chemicals, used at 0.5M in the TMB solution, were compared against the betaine reagent in non-encapsulation solubilization methods. Glycine (Sigma, Cat #G8898), sarcosine (Sigma, Cat #131776), choline chloride (Sigma, Cat #C1909), L-carnitine (Sigma, Cat #C0158), 3-(1-pyridinio)-1-propanesulfonate (Sigma, Cat #82804), or the betaine N,N,N-trimethylglycine (Sigma, Cat #B2629) were all added to separate scintillation vials of TMB solution. A Nunc Maxisorb 96 microwell plate (Cat #439454) was coated with 100 μL of an 850 ng/mL solution of Rabbit Anti-Peroxidase (Accurate Chemical and Scientific Corporation, Cat #ACZ001021). The plate was then coated with 150 μL of StabilCoat (SurModics, Cat #SC01) for one hour. This was then aspirated and the plate was allowed to dry overnight in a desiccation chamber. Plates were then incubated with 100 μL of 3.125 ng/mL solution of HRP in Stabilzyme HRP Conjugate stabilizer (SurModics, SZ02) for one hour, washed three times, and 100 uL of TMB substrate was added to each well. […] To each TMB solution was added 1 mM hydroxy propyl beta-cyclodextrin (Wacker, 60082620), 3 mm hydroxy propyl beta-cyclodextrin (Wacker, 60082620), or 0.5M of the betaine N,N,N-trimethylglycine (Sigma, Cat #B2629). A Nunc Maxisorb 96 microwell plate (Cat #439454) was coated with 100 μL of an 850 ng/mL solution of Rabbit Anti-Peroxidase (Accurate Chemical and Scientific Corporation, Cat #ACZ001021). The plate was then coated with 150 μL of StabilCoat (SurModics, Cat #SC01) for one hour. This was then aspirated and the plate was allowed to dry overnight in a desiccation chamber. Plates were then incubated with 100 μL of 3.125 ng/mL solution of HRP in Stabilzyme HRP Conjugate stabilizer (SurModics, SZ02) for one hour, washed three times, and 100 uL of TMB substrate was added to each well.

[3] = cited from earlier work
[4] = Example 1: additive at 0.5M in TMB solution (3 mM TMB, 0.5% DMSO, 1.25 mM hydroxypropyl beta-cyclodextrin, 0.01% H2O2, pH 3.5), TMBW as supplied, 20 μL in 980 μL water
[5] = Example 1: additive at 0.5M in TMB solution (3 mM TMB, 1.25 mM hydroxypropyl beta-cyclodextrin, pH 3.5), TMBW as supplied

C[N+](C)(C)C[C@H](O)CC(=O)[O-] (racemic) [DL-Carnitine, L-carnitine]
Dye (A285) [1, 4]: 0.254
Kinetics (mAu/min) [2, 5]: 18.432 mAu/min

Cc1cc(-c2ccc(N)c(C)c2)ccc1N [2-tolidine]
solubility in water [3]: 1.3 g/L (≈ 6.12 mM)

O=S(=O)([O-])CCC[n+]1ccccc1 [3-(1-Pyridinio)-1-propanesulfonate, 3-(1-pyridinio)-1-propanesulfonate]
Dye (A285) [1, 4]: 1.175
Kinetics (mAu/min) [2, 5]: 49.732 mAu/min

Nc1ccc(-c2ccc(N)cc2)cc1 [Benzidine, biphenyl-4,4′-diamine]
solubility in water ([3]; at 100° C., in the absence of the N,N,N-trimethylglycine solubilization reagent): 0.94 g/100 mL

C[N+](C)(C)CC(=O)O [Betaine (N,N,N-trimethylglycine), N,N,N-trimethylglycine]
solubility in water ([3]; at 25° C.): up to 64 g/100 mL
solubility in water (molar) ([3]; at 25° C.): ~5500 mM
Dye (A285) [1, 4]: 0.974
Dye (A285) ([1]; Example 2: 0.25M N,N,N-trimethylglycine, 3 mM TMB, 0.5% DMSO, pH 3.5): 0.35
Dye (A285) ([1]; Example 2: 0.5M N,N,N-trimethylglycine, 3 mM TMB, 0.5% DMSO, pH 3.5): 0.535
Dye (A285) ([1]; Example 2: 1M N,N,N-trimethylglycine, 3 mM TMB, 0.5% DMSO, pH 3.5): 0.85
Dye (A285) ([1]; Example 3: 0.5M additive in 3 mM TMB, 0.5% DMSO, 0.01% H2O2, pH 3.5): 1.061
Kinetics (mAu/min) [2, 5]: 71.917 mAu/min
Kinetics (mAu/min) ([2]; Example 3: 0.5M additive in 3 mM TMB solution, pH 3.5): 71.739 mAu/min

C[N+](C)(C)CCO.[Cl-] [Choline Chloride, choline chloride]
Dye (A285) [1, 4]: 1.074
Kinetics (mAu/min) [2, 5]: 2.855 mAu/min

NCC(=O)O [Glycine]
Dye (A285) [1, 4]: 0.358
Kinetics (mAu/min) [2, 5]: 41.16 mAu/min

CNCC(=O)O [Sarcosine, sarcosine]
Dye (A285) [1, 4]: 0.45
Kinetics (mAu/min) [2, 5]: 45.014 mAu/min

hydroxy propyl beta-cyclodextrin [Beta Cyclodextrin]
Dye (A285) ([1]; Example 3: 1 mM additive in 3 mM TMB, 0.5% DMSO, 0.01% H2O2, pH 3.5): 0.339
Dye (A285) ([1]; Example 3: 3 mM additive in 3 mM TMB, 0.5% DMSO, 0.01% H2O2, pH 3.5): 0.78
Kinetics (mAu/min) ([2]; Example 3: 1 mM additive in 3 mM TMB solution, pH 3.5): 39.697 mAu/min
Kinetics (mAu/min) ([2]; Example 3: 3 mM additive in 3 mM TMB solution, pH 3.5): 49.775 mAu/min

Source: patent US9588123B2, “Compositions and methods for in vitro diagnostic tests including zwitterionic solubilization reagent” (SurModics IVD, Inc., priority 2014, dated 2017)
